# Activity calls are given as the source filed them.
# Columns and labels:
# [1] = target: T1, Leucine aminopeptidase (Plasmodium falciparum 3D7, UniProt Q8IL11); assay: P. falciparum M17LAP inhibitors, primary screen, biochemical, fluorogenic H-Leu-NHMec substrate, 1536-well (AID 1619); type: functional
# T1 sequence (Q8IL11 whole entry): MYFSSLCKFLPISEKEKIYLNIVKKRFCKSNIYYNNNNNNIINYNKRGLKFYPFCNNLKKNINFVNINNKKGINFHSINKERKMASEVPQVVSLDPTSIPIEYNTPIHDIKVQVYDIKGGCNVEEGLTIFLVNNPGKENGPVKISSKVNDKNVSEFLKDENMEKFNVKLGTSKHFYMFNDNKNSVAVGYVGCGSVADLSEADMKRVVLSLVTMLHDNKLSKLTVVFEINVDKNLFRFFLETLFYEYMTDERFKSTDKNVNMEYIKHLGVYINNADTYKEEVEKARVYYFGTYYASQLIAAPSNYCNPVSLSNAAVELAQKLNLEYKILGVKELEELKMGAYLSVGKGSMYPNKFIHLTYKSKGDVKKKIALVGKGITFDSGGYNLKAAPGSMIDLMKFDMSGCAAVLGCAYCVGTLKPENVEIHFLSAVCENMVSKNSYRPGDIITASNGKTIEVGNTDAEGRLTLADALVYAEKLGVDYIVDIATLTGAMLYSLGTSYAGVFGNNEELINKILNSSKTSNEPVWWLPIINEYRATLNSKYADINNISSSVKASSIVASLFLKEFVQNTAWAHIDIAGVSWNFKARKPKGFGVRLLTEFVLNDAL
# [2] = target: Cytochrome P450 2C19 (Homo sapiens, UniProt P33261); assay: Cytochrome panel assay with activity outcomes. Panel member name: p450-cyp2c19 Compounds with AC50 equal or less than 10 uM are considered active; type: functional; conditions: read-out: AC50
# Chain of Cytochrome P450 2C19 (P33261 whole entry): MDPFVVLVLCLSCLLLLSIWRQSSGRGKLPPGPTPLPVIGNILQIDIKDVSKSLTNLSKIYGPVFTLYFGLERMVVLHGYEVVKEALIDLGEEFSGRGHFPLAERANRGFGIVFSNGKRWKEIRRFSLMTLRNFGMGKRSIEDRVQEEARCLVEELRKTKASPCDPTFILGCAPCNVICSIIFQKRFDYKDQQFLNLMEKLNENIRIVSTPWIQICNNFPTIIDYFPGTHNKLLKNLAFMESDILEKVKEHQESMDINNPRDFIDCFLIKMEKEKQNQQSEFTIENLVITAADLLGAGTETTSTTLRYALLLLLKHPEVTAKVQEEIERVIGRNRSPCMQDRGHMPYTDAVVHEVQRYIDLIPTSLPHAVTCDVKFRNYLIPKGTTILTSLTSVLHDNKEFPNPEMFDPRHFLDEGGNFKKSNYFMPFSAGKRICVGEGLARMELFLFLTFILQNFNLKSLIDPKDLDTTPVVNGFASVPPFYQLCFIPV
# [3] = target: T2, Neuropeptide Y receptor type 2 (Homo sapiens, UniProt P49146); assay: IC50 for human NPY-Y2 blockade – cell-based, counter-screen for NPY-Y1 antagonist project, dose response (AID 1278); type: functional
# T2 sequence (P49146 whole entry): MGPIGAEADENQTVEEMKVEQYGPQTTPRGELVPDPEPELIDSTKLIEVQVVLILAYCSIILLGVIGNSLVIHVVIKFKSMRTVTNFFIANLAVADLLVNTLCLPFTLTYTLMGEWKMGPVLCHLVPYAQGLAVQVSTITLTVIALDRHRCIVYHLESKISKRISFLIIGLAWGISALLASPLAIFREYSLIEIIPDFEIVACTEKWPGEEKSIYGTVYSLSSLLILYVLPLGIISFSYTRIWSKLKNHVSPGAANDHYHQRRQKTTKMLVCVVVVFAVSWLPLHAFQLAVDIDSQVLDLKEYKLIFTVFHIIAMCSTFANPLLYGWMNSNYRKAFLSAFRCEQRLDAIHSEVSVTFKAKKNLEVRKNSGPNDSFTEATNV
# [4] = target: T3, Neuropeptide Y receptor type 1 (Homo sapiens, UniProt P25929); assay: IC50 of human NPY-Y1 blockers – cell-based, dose response (AID 1277); type: functional
# T3 sequence (P25929 whole entry): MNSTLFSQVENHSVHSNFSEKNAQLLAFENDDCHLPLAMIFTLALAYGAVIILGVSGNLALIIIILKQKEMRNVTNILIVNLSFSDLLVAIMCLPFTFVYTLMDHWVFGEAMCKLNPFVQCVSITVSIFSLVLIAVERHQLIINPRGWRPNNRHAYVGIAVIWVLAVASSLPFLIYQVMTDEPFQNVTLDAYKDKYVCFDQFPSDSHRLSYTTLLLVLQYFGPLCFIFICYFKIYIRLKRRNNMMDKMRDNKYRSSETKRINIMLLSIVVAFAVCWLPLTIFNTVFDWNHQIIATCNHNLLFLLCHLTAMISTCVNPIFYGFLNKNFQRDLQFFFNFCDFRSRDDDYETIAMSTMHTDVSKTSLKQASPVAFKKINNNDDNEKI
# [5] = target: Luciferin 4-monooxygenase (Photinus pyralis, UniProt P08659); assay: Counter Screen for Luciferase-based Assay Positives. [Related pubchem assays: 620, 618, 411 ]
# Chain of Luciferin 4-monooxygenase (P08659 whole entry): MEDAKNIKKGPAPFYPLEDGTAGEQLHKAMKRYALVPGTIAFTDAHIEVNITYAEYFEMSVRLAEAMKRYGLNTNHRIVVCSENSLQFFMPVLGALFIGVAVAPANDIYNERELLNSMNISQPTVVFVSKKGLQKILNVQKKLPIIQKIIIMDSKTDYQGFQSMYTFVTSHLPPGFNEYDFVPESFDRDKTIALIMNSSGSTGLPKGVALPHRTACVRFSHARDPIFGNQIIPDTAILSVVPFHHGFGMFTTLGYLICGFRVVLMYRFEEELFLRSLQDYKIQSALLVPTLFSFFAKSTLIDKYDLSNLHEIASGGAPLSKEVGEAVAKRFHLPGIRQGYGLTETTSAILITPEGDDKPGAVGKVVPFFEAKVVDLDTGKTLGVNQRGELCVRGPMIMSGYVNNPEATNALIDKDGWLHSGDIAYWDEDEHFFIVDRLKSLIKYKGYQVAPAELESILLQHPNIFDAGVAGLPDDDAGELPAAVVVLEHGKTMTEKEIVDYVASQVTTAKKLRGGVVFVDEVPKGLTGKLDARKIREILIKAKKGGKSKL
# [6] = test system: HT-1080; assay: HT1080 cell viability loss – fluorescence readout (AID 620); type: functional, cell-based; conditions: Homo sapiens
# [7] = HPDE-C7 pancreatic duct cell viability loss – fluorescence, HTS (AID 430); type: functional, cell-based; conditions: Homo sapiens
# [8] = viability loss of HPDE-C7K cells – cell-based, fluorescence, HTS, primary screen (AID 431); type: functional; conditions: Homo sapiens
# [9] = target: T4, Cytochrome P450 1A2 (Homo sapiens, UniProt P05177);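 note: PubChem cytochrome P450 panel assay, CYP1A2 panel member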
# T4 sequence (P05177 whole entry): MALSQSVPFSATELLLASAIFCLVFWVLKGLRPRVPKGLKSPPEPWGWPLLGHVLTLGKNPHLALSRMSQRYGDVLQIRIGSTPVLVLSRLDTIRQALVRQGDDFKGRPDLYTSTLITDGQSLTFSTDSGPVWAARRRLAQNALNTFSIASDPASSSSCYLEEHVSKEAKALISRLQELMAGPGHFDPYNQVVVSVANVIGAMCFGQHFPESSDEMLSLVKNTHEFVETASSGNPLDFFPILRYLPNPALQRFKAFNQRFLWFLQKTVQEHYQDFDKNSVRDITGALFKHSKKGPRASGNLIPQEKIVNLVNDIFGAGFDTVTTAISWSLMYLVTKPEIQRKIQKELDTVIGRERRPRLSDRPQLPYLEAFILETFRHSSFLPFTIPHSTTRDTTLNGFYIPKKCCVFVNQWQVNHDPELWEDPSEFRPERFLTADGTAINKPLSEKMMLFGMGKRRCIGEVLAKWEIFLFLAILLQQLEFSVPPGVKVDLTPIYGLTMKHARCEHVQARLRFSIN
# [10] = test system: Streptococcus sp. 'group A'; assay: Streptococcus pyogenes SK(-)GAS viability under kanamycin – luminescence, BacTiterGlo, confirmation, counter-screen for streptokinase expression inhibitor project, dose response (AID 1900); type: functional, organism-based
# [11] = target: T5, Streptokinase A (Streptococcus pyogenes serotype M1, UniProt P10520); assay: viability-normalized secreted streptokinase activity reduction – plasminogen activation absorbance, OD405, dose response (AID 1914); type: functional, Streptococcus pyogenes M1 GAS;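 note: secreted streptokinase activity via plasminogen activation per viability signal from cell pellet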
# T5 sequence (P10520 whole entry): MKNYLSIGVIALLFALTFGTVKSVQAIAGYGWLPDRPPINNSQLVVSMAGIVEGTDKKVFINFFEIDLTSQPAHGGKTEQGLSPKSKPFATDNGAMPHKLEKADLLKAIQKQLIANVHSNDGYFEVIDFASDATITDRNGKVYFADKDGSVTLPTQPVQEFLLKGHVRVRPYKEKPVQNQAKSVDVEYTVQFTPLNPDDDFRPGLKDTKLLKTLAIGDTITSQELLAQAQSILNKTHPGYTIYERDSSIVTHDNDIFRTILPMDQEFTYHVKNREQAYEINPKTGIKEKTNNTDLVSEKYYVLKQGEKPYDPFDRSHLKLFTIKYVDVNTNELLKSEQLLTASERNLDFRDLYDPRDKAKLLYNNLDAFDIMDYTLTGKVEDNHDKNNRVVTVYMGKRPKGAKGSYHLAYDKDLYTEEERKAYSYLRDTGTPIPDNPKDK
# [12] = test system: Streptococcus; assay: GAS UMAA2166 growth inhibition – luminescence, BacTiterGlo, counter-screen for streptokinase expression inhibitor project, dose response (AID 1915); type: functional, organism-based;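 note: potency for reduction of bacterial viability or growth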
# [13] = M. tuberculosis H37Rv growth inhibitors, H37Rv strain (AID 1626); type: functional
# [14] = A549 cell cytotoxicity, dose response, cytotoxicity control, plate reader, cherry-pick, antagonist series (AID 743412); type: functional, cell-based
# [15] = toxicity toward HepG2 liver cells – cell-based, plate reader, cherry-pick, antagonist series, cytotoxicity control, dose response (AID 743416); type: functional
# [16] = blockers of bursicon-stimulated LGR2 cAMP reporter – cell-based, HEK293, CRE-luciferase reporter, cherry pick, set 2, dose response (AID 743343); type: functional;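 note: transfected cells were stimulated with diluted bursicon conditioned medium after compound addition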
# [17] = blockade of melanocortin 4 receptor signaling – cell-based, plate reader, cherry pick, counter-screen for LGR2 antagonist project, dose response (AID 743444); type: functional;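 note: transfected HEK 293 cells stimulated with alpha-MSH peptide; potency of inhibitors of the alpha-MSH evoked signal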
# [18] = viability loss in HEK293 cells – cell-based, plate reader, cherry-picked samples, cytotoxicity control, dose response (AID 743446); type: functional
# [19] = target: T6, Dual specificity protein phosphatase 6 (Rattus norvegicus, UniProt Q64346); assay: inhibition of rat DUSP6 enzyme activity – biochemical, in vitro, primary screen (AID 425)
# T6 sequence (Q64346 whole entry): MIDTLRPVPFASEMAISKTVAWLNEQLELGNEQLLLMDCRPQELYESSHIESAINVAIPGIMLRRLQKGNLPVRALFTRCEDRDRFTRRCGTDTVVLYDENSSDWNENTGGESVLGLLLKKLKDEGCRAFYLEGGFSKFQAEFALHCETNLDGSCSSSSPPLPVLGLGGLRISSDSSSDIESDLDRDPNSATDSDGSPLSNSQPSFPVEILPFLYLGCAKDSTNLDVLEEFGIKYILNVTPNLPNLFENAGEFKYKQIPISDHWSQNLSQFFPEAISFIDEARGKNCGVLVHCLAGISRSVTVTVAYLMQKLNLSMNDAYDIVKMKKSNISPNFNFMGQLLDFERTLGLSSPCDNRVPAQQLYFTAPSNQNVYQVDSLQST
# [20] = NIH-3T3 fibroblast cytotoxicity, dose response, cytotoxicity control, cell-based, fluorescence, Alamar Blue, secondary assay (AID 2327); type: functional;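 note: NIH-3T3 mouse fibroblasts cultured with fluconazole at 8 µg/mL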
# [21] = fluconazole-exposed Candida albicans growth modulators – fluorescence, retest, confirmation (AID 2467); type: functional, cell-based
# [22] = target: T7, Mannose-6-phosphate isomerase (Homo sapiens, UniProt P34949); assay: MPI enzyme activity inhibition – biochemical, fluorescence intensity, coupled assay, primary screen (AID 1209)
# T7 sequence (P34949 whole entry): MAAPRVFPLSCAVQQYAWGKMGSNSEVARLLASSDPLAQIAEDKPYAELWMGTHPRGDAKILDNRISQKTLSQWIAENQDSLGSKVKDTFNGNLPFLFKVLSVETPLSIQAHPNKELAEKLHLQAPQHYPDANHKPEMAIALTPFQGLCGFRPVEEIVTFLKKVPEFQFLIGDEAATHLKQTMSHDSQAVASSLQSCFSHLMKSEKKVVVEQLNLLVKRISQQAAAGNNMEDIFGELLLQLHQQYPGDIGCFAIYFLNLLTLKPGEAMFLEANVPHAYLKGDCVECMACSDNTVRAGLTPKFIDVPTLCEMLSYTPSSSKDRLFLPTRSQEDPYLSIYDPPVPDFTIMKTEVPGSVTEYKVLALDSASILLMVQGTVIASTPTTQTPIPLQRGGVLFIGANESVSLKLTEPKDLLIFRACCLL
# [23] = target: T7, Mannose-6-phosphate isomerase; assay: MPI inhibition at elevated mannose 6-phosphate – biochemical, fluorescence intensity, high mannose 6-phosphate, primary screen (AID 1220)
# [24] = Luminescence Cell-Based Dose Retest to Confirm Inhibitors of Cancer Stem Cells. [Related pubchem assays (depositor defined):AID2717, AID2721]; type: functional; conditions: Homo sapiens
smiles,measurement,setting,value
COC(=O)c1ccc(NC(=O)C2CCCCC2C(=O)O)cc1 (centres undefined),IC50,[1],13.5 µM (active)
same,AC50,[2],0.0398 µM (inconclusive)
Cc1cc2cc(C)c(NCCNC(=O)c3cccc(F)c3)nc2cc1C,IC50,[3],4.44 µM (active)
same,IC50,[4],3.39 µM (active)
COC(=O)c1ccc(-c2nc(-c3cccs3)no2)cc1,EC50,[5],0.76 µM (active)
same,EC50,[6],> 50 µM (not active)
O=C1CC(c2ccc3c(c2)OCO3)c2cc3c(cc2N1)OCCO3 (centres undefined),EC50,[7],> 20 µM (not active)
same,EC50,[8],> 20 µM (not active)
O=C(c1cc(-c2cccc(O)c2)on1)N1CCCCC1,EC50,[5],0.64 µM (active)
same,EC50,[6],> 50 µM (not active)
COc1ccc([N+](=O)[O-])cc1N(CC(O)CN(CC(C)C)CC(C)C)S(=O)(=O)c1ccccc1 (centres undefined),IC50,[3],> 35 µM (not active)
same,IC50,[4],> 35 µM (not active)
same,AC50,[9],11.2 µM (inconclusive)
Cc1sc(NC(=O)C2C3C=CC(C3)C2C(=O)O)c(C(N)=O)c1-c1ccc(C(C)C)cc1 (centres undefined),IC50,[1],4.99 µM (active)
same,EC50,[10],32.1 µM (active)
same,EC50,[11],32.2 µM (active)
same,EC50,[12],> 150 µM (not active)
Cc1cc(=O)oc2ccc(OC(=O)CC(C)C)cc12,IC50,[13],> 100 µM (active)
O=S(=O)(CCSc1nc2ccccc2o1)c1nc2ccccc2s1,EC50,[7],4.88 µM (active)
same,EC50,[8],5.33 µM (active)
same,AC50,[14],44.4 µM (active)
same,AC50,[15],5.74 µM (active)
same,AC50,[16],2.43 µM (active)
same,AC50,[17],1.8 µM (active)
same,AC50,[18],6.8 µM (active)
COc1ccc(NC2(C#N)CCCCC2)cc1,IC50,[13],> 100 µM (active)
O=C(CN(Cc1ccco1)C(=O)CNS(=O)(=O)c1ccc(F)cc1)NCCc1ccccc1,IC50,[19],> 100 µM (not active)
COc1ccc(N2CCN(C(c3cccc(OC)c3OC)c3nnnn3C3CCCC3)CC2)cc1 (centres undefined),IC50,[3],> 35 µM (not active)
same,IC50,[4],> 35 µM (not active)
N=C1/C(=C\c2ccc(SCc3ccccc3)o2)C(=O)N=C2SC=NN12,EC50,[20],> 150 µM (inactive)
same,EC50,[21],5.72 µM (active)
same,IC50,[22],> 50 µM (not active)
COc1ccc2c(c1)C(C)=CC(C)(C)N2C(=O)Nc1ccccc1,IC50,[22],> 50 µM (not active)
same,IC50,[23],> 50 µM (not active)
c1ccc(-c2cc3c(NCC4COc5ccccc5O4)ncnc3s2)cc1 (centres undefined),EC50,[10],3 µM (active)
same,EC50,[11],3.29 µM (active)
same,IC50,[13],> 100 µM (active)
same,EC50,[12],21.7 µM (active)
same,AC50,[24],3.96 µM (active)
